Measured values from patent US9969771B2, “Tetrapeptide having effect of inhibiting VEGF-induced angiogenesis and use thereof” (AVIXGEN INC., priority 2015, dated 2018).
“Also recorded” adds a separate entry of the source. Where a SMILES comes first, the peptide text is derived from it.

Key:
ERK = experiment: Western blot, ERK phosphorylation in HUVECs; format: cell-based, human
Experimental: (§1) Cells were lyzed in RIPA buffer, and 50 μg of proteins were isolated by SDS-PAGE and then transferred to a PVDF membrane. The membrane was reacted with an antibody with respect to a target protein for 2 hours. The membrane was washed twice and reacted with a horseradish peroxidase-conjugated antibody, and then an amount of the target proteins was assessed with an enhanced chemiluminescence system.

Akt = experiment: Western blot, Akt phosphorylation in VEGF-A-stimulated HUVECs; format: cell-based, human; details: HUVECs stimulated with VEGF-A
Experimental: as §1

VEGFR-2 [1] = target: T1, VEGFR-2 (Homo sapiens, UniProt P35968); experiment: VEGFR pull-down assay using biotin-labeled RLYE, VEGFR-2; format: binding; set-up: endogenous in cells; host or cells: HUVEC; details: HUVEC lysate
T1 sequence (P35968 20-1356): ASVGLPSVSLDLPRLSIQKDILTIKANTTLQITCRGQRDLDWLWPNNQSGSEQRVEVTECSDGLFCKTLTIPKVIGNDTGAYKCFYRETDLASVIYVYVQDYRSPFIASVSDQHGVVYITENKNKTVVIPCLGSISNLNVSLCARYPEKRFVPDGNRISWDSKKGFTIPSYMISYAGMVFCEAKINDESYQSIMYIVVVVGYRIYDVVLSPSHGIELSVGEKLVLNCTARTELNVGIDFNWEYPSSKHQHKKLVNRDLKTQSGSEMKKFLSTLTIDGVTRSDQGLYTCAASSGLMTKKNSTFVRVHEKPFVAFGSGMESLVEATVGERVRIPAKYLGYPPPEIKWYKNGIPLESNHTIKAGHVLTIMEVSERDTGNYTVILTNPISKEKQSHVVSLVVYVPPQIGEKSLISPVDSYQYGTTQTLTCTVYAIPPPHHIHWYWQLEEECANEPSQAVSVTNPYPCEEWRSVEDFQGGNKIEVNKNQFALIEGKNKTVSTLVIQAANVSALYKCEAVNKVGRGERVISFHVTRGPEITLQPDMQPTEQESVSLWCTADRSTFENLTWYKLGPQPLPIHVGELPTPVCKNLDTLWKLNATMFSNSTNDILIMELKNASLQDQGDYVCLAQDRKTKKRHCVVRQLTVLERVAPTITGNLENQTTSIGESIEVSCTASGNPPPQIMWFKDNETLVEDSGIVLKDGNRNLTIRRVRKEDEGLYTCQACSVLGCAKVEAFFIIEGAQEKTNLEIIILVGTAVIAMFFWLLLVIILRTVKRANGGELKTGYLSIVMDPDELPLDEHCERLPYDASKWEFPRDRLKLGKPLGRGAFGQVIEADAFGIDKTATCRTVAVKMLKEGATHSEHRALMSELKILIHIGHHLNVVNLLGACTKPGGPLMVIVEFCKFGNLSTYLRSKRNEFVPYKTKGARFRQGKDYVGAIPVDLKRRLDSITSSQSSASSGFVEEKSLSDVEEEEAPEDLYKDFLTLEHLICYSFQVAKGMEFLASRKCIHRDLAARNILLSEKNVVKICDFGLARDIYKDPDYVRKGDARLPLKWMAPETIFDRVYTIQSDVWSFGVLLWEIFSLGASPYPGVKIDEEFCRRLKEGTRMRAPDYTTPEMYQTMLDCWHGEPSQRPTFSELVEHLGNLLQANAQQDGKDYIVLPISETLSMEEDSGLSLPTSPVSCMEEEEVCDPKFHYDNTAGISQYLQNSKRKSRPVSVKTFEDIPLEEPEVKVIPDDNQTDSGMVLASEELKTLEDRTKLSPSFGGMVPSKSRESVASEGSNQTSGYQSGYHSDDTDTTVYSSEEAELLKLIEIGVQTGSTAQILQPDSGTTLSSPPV
Experimental: HUVECs were lysed in a pull-down buffer [50 mM Tris-HCl (pH 8.0), 150 mM sodium chloride, 1.0% NP-40, 0.5% sodium deoxycholate and 0.1% SDS]. A lysate ([…] of proteins) was reacted with biotin-labeled RLYE (SEQ ID NO: 2) (0.15 or 1.5 nM) for 1 hour, and reacted with streptavidin-agarose beads ([…]) at 4° C. for 1 hour. RLYE (SEQ ID NO: 2)-binding proteins were isolated from the cell lysate through centrifugation, washed, and then boiled for 10 minutes. The bead-binding proteins were isolated by SDS-PAGE, and immunoblotting was performed with an antibody with respect to VEGFR-2 or VEGFR-1.

p38 = experiment: Western blot, p38 activation in VEGF-A-stimulated HUVECs; format: cell-based, human; details: HUVECs stimulated with VEGF-A
Experimental: as §1

HUVECs [2] = experiment: Confocal microscopy of FITC-RLYE binding to HUVECs; set-up: species or system human
Experimental: HUVECs were incubated on a cover glass coated with 2% gelatin, and then incubated with FITC-RLYE (SEQ ID NO: 2) (100 ng/ml) after being treated with VEGF-A (10 ng/ml) for 30 minutes or not treated. The cells were fixed in 3.7% formaldehyde for 30 minutes, treated with 0.2% TritonX-100-containing PBS, and reacted with a 3% goat serum and 0.05% Tween-20-containing PBS blocking solution. The cells were reacted with a PECAM-1 antibody at room temperature for 2 hours, washed with PBS, and reacted with a TRITC-conjugated secondary antibody at room temperature for 90 minutes. Samples were observed under a confocal microscope.

NO production in HUVECs = NO production in HUVECs (DAF-FM diacetate); format: cell-based, human; details: peptide 0.15 nM, VEGF 10 ng/ml
Experimental: An NO amount produced in HUVECs was evaluated with DAF-FM diacetate. HUVECs were reacted with peptides (0.15 nM) and VEGF (10 ng/ml) for 4 hours, and incubated with DAF-FM diacetate (5 μM) in a CO2 constant temperature incubator, and the amount of NO produced in the cells was measured under a confocal microscope.

VEGFR-2 [3] = target: T1, VEGFR-2; experiment: Western blot, VEGFR-2 phosphorylation in VEGF-A-treated HUVECs; format: cell-based; set-up: endogenous in cells; host or cells: HUVEC
Experimental: as §1

HUVECs [4] = experiment: HUVEC migration, transwell (Boyden chamber) assay; format: cell-based, human
Experimental: HUVEC migration was analyzed using a transwell plate equipped with a 6.5-mm-diameter polycarbonate filter (8-μm pore size). A lower surface of the filter was coated with 10 μg of gelatin. […] Following incubation with various concentrations of tetrapeptides at room temperature for 30 minutes, HUVECs (1×10^6 cells/100 μl) were placed in upper wells. The cells were incubated at 37° C. in a constant temperature and humidity chamber for 4 hours. The migrated cells were stained with hematoxylin and eosin, and quantified under an optical microscope.

NO synthase (eNOS) = experiment: Western blot, eNOS phosphorylation in VEGF-A-stimulated HUVECs; format: cell-based, human
Experimental: as §1

VEGFR-2 [5] = target: T1, VEGFR-2; experiment: Surface plasmon resonance (SPR) assay; format: binding; details: rhVEGFR-2 fixed on CM5 chip
Experimental: Binding dynamics and affinity of RLYE (SEQ ID NO: 2) to rhVEGFR-2 were evaluated with BIAcore AB (Sweden). A carboxymethylated dextran biosensor chip (CM5, BIAcore AB) was activated with 1-ethyl-3-(3-dimethylaminopropyl)carbodiimide and N-hydroxysuccinimide according to the manufacturer's manual. The rhVEGFR-2 (1 ng/μl, 10 mM Hepes, 150 mM NaCl, 3 mM EDTA, 0.005% Tween-20-containing HBS-EP buffer) was injected over the activated CM5 chip for fixation. Various concentrations of an RLYE (SEQ ID NO: 2) solution was injected over the rhVEGFR-2-fixed center chip with a flow rate of 25 μl/min, and binding and non-binding characteristics between RLYE (SEQ ID NO: 2) and the rhVEGFR-2 were analyzed. The peptide bonds were measured in arbitrary response units, and after the injection of each sample (120 sec), the HBS-EP buffer was passed over a sensor surface to monitor dissociation. The equilibrium dissociation constant (Kd) was derived to a fixing step-combined model.

[6] = test system: VEGF-A-induced angiogenesis; experiment: Matrigel implantation, intravital fluorescence microscopy; format: in vivo, C57BL/6J mouse; details: mouse, RLYE 1.5 nM, VEGF 100 ng
Experimental: Formation of new blood vessels was examined by intravital fluorescence microscopy. A C57BL/6J mouse was anesthetized, and then a titanium-made imaging window was installed between the skin and an abdominal wall by surgery. 100 μl of Matrigel containing RLYE (SEQ ID NO: 2) (1.5 nM) alone or in combination with VEGF (100 ng) was injected into an inner space between the skin and abdominal walls of the window. Four days later, 50 μl of dextran (MW 250 kDa) labeled with 25 mg/ml of FITC was injected into the caudal vein, and then formation of new blood vessels was observed under a Zeiss Axiovert 200M microscope (Carl Zeiss). A vascular length density of the FITC-labeled dextran-perfuse blood vessels per observation area (mm/mm2) was calculated.

CC(C)C[C@H](NC(=O)[C@@H](N)CCCNC(=N)N)C(=O)N[C@@H](Cc1ccc(O)cc1)C(=O)N[C@@H](CCC(=O)O)C(=O)O [RLYE] (H-RLYE-OH; N-terminus and C-terminus assumed)
P1GF-induced ERK phosphorylation (ERK; P1GF (ligand of VEGFR-1)): did not inhibit | inhibition of VEGF-induced ERK phosphorylation (ERK; VEGF / VEGF-A stimulated): inhibited; also recorded: more effectively inhibited; also recorded: highest inhibitory effect | VEGF-B-induced ERK phosphorylation (ERK; VEGF-B (ligand of VEGFR-1)): did not inhibit | phosphorylation of Akt (Akt): inhibited | binding to VEGFR-2 (pull-down) (VEGFR-2 [1]): binds to VEGFR-2 | activation of p38 (p38): inhibited | binding to HUVEC surface (confocal microscope) (HUVECs [2]; pretreatment of VEGF-A): effectively blocked | binding to HUVEC surface (confocal microscope) (HUVECs [2]; without VEGF-A pretreatment): binds to a HUVEC surface | inhibition of VEGF-induced NO production (NO production in HUVECs): effectively blocked; also recorded: effectively inhibited; also recorded: higher inhibitory effect than the control KLYD | phosphorylation of VEGFR-2 (VEGFR-2 [3]): inhibits | EGF-induced migration of HUVECs (HUVECs [4]; EGF stimulated): does not affect | P1GF-induced HUVEC migration (HUVECs [4]; P1GF (ligand of VEGFR-1)): does not inhibit | inhibition of VEGF-induced HUVEC migration (HUVECs [4]; VEGF / VEGF-A stimulated): effectively inhibited; also recorded: certainly inhibits; also recorded: concentration-dependently inhibited | VEGF-B-induced HUVEC migration (HUVECs [4]; VEGF-B (ligand of VEGFR-1)): does not inhibit | bFGF-induced migration of HUVECs (HUVECs [4]; bFGF stimulated): did not inhibit | VEGF-A-induced phosphorylation of eNOS (NO synthase (eNOS)): effectively blocked | binding to rhVEGFR-2 (SPR) (VEGFR-2 [5]): effectively binds | VEGF-A-induced angiogenesis in Matrigel implant [6]: effectively inhibited
